Drawing on paper PMC3317823, “Identification and characterization of a novel thermostable pyrethroid-hydrolyzing enzyme isolated through metagenomic approach” (Microbial Cell Factories, 2012), this text covers Km for two compounds.

In this test the target is Sys410 (uncultured bacterium, UniProt H9CDG2). Kind of test: spectrophotometric p-nitrophenol release at […] nm, Michaelis-Menten fit. Conditions: pH 6.5, potassium phosphate 50 mM, 55°C, gum arabic and Triton X-100 in substrate solution.
Sys410, sequence (H9CDG2 1-280 limits assumed): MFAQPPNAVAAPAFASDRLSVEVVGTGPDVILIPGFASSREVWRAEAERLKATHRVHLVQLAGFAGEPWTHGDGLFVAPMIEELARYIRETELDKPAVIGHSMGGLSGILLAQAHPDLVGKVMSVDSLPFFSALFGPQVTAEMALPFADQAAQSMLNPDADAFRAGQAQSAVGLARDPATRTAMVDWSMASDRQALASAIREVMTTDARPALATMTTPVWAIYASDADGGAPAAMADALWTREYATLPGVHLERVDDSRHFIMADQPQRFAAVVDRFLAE

For `CCCCCCCC(=O)Oc1ccc([N+](=O)[O-])cc1` [C6, ρ-nitrophenyl caprylate], where the note is “paper labels caprylate as C6, chain length uncertain”, the Km stood at 33.2 ± 2.1 µM. Regarding `CCCCCC(=O)Oc1ccc([N+](=O)[O-])cc1` [C8, ρ-nitrophenyl caproate], the Km (paper labels caproate as C8, chain length uncertain) came to 57.6 ± 1.9 µM.

A word on the Km: it is the concentration of substrate that gives half-maximal velocity.
